Measured values as given in patent US20180369421A1, “METHOD FOR REDUCING THE PLACEBO EFFECT IN CLINICAL TRIALS” (priority 2017, published 2018).
“And” between values parts separate entries of the source, which are not always exact repeats. Identical values can stand only once.

Assays:
[1] = cited from earlier work
[2] = system: constipation in subjects not on any adjunctive medication that could cause constipation; test: Clinical trial of two doses of a new product for the treatment of constipation in subjects not on adjunctive medication that could cause constipation, with Acebo arms (Example 3); type: in vivo, human; details: Acebo arm, twice daily
Text: A clinical trial is being conducted to measure of the efficacy of two different doses of a new product for the treatment of constipation in subjects not on any adjunctive medication that could cause constipation. Nine hundred sixty (960) subjects are enrolled. The investigational product is supplied by the investigational treatment team. Subjects who have been on both of the potential Acebos, nortriptyline and St John's wort, will be excluded from this study.
All subjects sign an informed consent document prior to beginning the clinical research trial. They are all informed of the following: • 1. 300 of the subjects will be randomized to the new investigational medication, product Y, once daily, and the known benefits and the known and potential side effects of Product Y are disclosed. To keep the study blinded, subjects will take a pill twice a day, but one of their doses will be a placebo. • 2. 300 of the subjects will be randomized to the new investigational medication, product Y, twice daily, and the known benefits and the known and potential side effects of Product Y are disclosed. • 3. 300 of the subjects will be randomized to placebo taken twice a day. • 4. […]

[3] = system: constipation in subjects already on an opioid pain medication; test: Clinical trial of a new product for the treatment of constipation in subjects already on an opioid pain medication, with Acebo arms (Example 2); type: in vivo, human; details: Acebo arm
Text: A clinical trial is being conducted to measure the efficacy of a new product for the treatment of constipation in subjects already on an opioid pain medication. Nine hundred sixty (960) subjects are enrolled. All are maintained on their present pain medication regimen supplied by the clinical treatment team. The investigational product is supplied by the investigational treatment team as well. The opioid pain medication regimen continues as it was; the investigational product is taken either once or twice per day in a randomized manner.
All subjects sign an informed consent document prior to beginning the clinical research trial. They are all informed of the following: • 1. 300 of the subjects will be randomized to the new investigational medication, product Y, once daily, and the known benefits and the known potential side effects of Product Y are disclosed. To keep the study blinded, subjects will take a pill twice a day, but one of their doses will be a placebo. • 2. 300 of the subjects will be randomized to the new investigational medication, product Y, twice daily, and the known benefits and the known potential side effects of Product Y are disclosed. • 3. 300 of the subjects will be randomized to placebo taken twice a day. • 4.
5. […] Because you could receive an Acebo, you could get worse.

[4] = drugs.com; cited from earlier work

SMILES: Clc1cccc(Cl)c1N=C1NCCN1 [clonidine]
- depression among people who took the drug and reported side effects ([1]; 932 of 31,961 people reported to have side effects): ~3% and 2.92%

SMILES: N=C(N)NC(=O)Cc1c(Cl)cccc1Cl [guanfacine]
- depression as side effect ([1]; in vivo): does not cause depression
- fatigue (tiredness), share of people ([1]; on average): 16%
- lethargy, share of people ([1]; on average): 6%
- somnolence, share of people ([1]; on average): 34%

SMILES: CNCCC=C1c2ccccc2CCc2ccccc21 [nortriptyline]
- worsening in abdominal discomfort [2]: 1%
- worsening [3]: 2%
- constipation as side effect, share of the time [4]: ≥ 10%
